In patent US20110020801A1, “Carboxylesterase-1 Polymorphisms and Methods of Use Therefor” (priority 2007, published 2011):

How the values were obtained:
p.Asp260fs CES1 = target: T1, p.Asp260fs CES1 (Homo sapiens, UniProt P23141); experiment: MPH hydrolysis to ritalinic acid by S9 of cells expressing p.Asp260fs CES1 (HPLC); assay type: biochemical; conditions: S9 500 μg/ml, even at very high S9 concentration (2 mg/ml); 37° C., 2 h
T1 construct: a frameshift mutation that alters residues 260-299 and causes early truncation at a premature stop codon; expressed in transfected cells
T1 sequence (P23141 with tags, fused parts or gaps): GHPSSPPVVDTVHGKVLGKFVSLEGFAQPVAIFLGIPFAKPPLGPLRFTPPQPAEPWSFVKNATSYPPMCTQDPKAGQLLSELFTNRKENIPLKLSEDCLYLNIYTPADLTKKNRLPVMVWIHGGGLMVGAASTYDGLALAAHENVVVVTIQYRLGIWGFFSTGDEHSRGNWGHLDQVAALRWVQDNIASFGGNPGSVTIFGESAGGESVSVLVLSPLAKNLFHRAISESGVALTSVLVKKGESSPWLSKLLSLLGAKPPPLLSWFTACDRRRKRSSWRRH
Text: (§1) The desired plasmid was designed such that the recombinant CES1 would be expressed in mammalian cells with a V5-His tag to facilitate detection and purification. Additionally, another plasmid was generated by inserting a stop codon after CES1A1 gene to yield the constructs expressing CES1 without V5-His tag. […] Thus, only untagged CES1 and its associated mutants were used in the enzymatic hydrolysis study. Two constructs of CES1 mutations, p.Gly143Glu and p.Asp260fs, were generated using a site-directed mutagenesis assay. All constructs were subjected to DNA sequencing analysis to confirm that the desired plasmids were obtained. The identified CES1A1 plasmids (WT, p.Gly143Glu, and p.Asp260fs) were co-transfected with pOG44 plasmid at a ratio of 1:10 into Flp-In™-293 cells using […] (Invitrogen, Carlsbad, Calif.). Additionally, the self-ligated pcDNA5/FRT/V5-His-TOPO® vector was included as a vector control. Twenty-four hours after transfection, cells were washed with PBS and fresh complete medium (Dulbecco's modified Eagle's medium containing 10% fetal bovine serum) was added. […]
(§2) After attaining approximately 95% confluence, cells were rinsed and harvested in PBS containing 10 mM HEPES (pH 7.4). […] The protein concentration was determined using a Pierce BCA assay kit (Rockford, Ill.).
(§3) For the study of MPH hydrolysis, the reaction was conducted in 1.5 mL eppendorf tubes with a final S9 concentration of 0.5 mg/mL at a total volume of 100 μL. […] Concentrations of the primary phase I MPH metabolite produced via hydrolysis, ritalinic acid (RA), was determined utilizing an established HPLC method described below.
(§4) Thus, following the enzymatic assay, the values determined for spontaneous PNP and RA hydrolysis were subtracted from the total PNP and RA production. […] All collected data were fit to the Michaelis-Menten equation, and kinetic parameters were calculated using nonlinear regression analysis with Graphpad Prism software (Graphpad Software Inc., San Diego, Calif.) […]

WT CES1 = target: T2, WT CES1 (Homo sapiens, UniProt P23141); experiment: MPH hydrolysis to ritalinic acid by S9 of cells expressing WT CES1 (HPLC); assay type: biochemical; conditions: S9 0.5 mg/mL, 37° C., 2 hours, mean ± S.D. (n = 3), listed as d-isomer
T2 construct: inserting a stop codon after CES1A1 gene to yield the constructs expressing CES1 without V5-His tag; expressed in transfected cells
T2 sequence (P23141 18-567): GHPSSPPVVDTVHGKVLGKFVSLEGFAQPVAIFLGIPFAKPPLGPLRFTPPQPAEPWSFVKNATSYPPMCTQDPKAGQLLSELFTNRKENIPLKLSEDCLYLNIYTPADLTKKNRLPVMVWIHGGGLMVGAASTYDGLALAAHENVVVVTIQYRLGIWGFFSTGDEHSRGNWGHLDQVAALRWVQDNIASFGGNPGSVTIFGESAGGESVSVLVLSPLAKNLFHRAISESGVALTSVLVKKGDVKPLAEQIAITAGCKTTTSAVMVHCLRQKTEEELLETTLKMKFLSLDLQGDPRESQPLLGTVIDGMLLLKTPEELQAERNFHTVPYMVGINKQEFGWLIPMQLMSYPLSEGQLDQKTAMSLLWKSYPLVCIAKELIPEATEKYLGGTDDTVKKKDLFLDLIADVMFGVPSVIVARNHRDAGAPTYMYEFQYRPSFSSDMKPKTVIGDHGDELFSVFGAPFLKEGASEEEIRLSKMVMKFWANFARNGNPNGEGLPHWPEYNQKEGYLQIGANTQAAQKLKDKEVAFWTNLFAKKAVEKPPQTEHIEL
Text: as §1, §2, §3, §4

For `COC(=O)[C@H](c1ccccc1)[C@H]1CCCCN1` [d-MPH, methylphenidate], the “catalytic activity towards MPH hydrolysis” value (p.Asp260fs CES1) was “failed to show any hydrolytic activity” and the Vmax (WT CES1) was 177.2 pmole/min/mg protein.
